Patent US10595532B2, “Ophthalmic contact lens solutions containing forms of vitamin B” (FXS Ventures, LLC, priority 2000, dated 2020)
Where a name gives a salt, the structure may show the parent alone.

Experiments:
Format in all cases: cell-based
C. albicans [1] = experiment: in vitro microbicidal activity of dexpanthenol solutions in 0.25% Bis-Tris Propane buffer preserved with PHMB (Example 2); details: PHMB 0.5 ppm; for Log Reduction Calibicans 4 hour: C. albicans, room temperature, Bis-Tris Propane 0.25%, Cremophor 0.20%, Inositol 3.0%, Allantoin 0.1%, pH 7.2, dexpanthenol 0.1% or none
Protocol: (§1) Formulations containing dexpanthenol were prepared in a 0.25% Bis-Tris Propane buffer. The solutions were made isotonic with sodium chloride and preserved with polyhexamethylene biquanide at 0.00005%. The pH was adjusted to 7.2 with either 1 N sodium hydroxide or 1 N hydrochloric acid. The in vitro microbicidal activity of the solutions was determined by exposing C. albicans to 10 ml of each solution at room temperature for 4 hours. Subsequently, an aliquot of each solution was serial diluted onto agar plates and incubated for 48 hours at elevated temperatures. At the conclusion of the incubation period the plates are examined for the development of colonies. The log reduction was determined based on a comparison to the inoculum control. The following table provides the results of the in vitro studies.

E. coli [2] = experiment: in vitro anti-microbial activity of vitamin B solutions in 0.5% Tris buffer with PHMB (Example 3); details: for effect on the preservative (PHMB): 0.5% vitamin B, 1 ppm PHMB, E. coli 1 hour; for Log Reduction at 1 hr: E. coli, room temperature, 0.5% Tris, 0.6% sodium chloride, pH 7.2, 1 ppm PHMB, vitamin B 0.5% or none
Protocol: (§2) Formulations containing Dexpanthanol (Spectrum), Pyridoxine HCl (Spectrum) Thiamine HCl (Spectrum), and no Vitamin B control were prepared in a 0.5% Tris buffer containing 0.6% sodium chloride. The pH was adjusted with 1 N HCl to a final pH of 7.2. Polyhexamethylene biquanide (PHMB) at 0.0001% was added to each formulation. The in vitro anti-microbial activity of the solutions was determined by exposing E. coli to 10 ml of each solution at room temperature for 1 hours. Subsequently, an aliquot of each solution was serial diluted onto agar plates and incubated for 48 hours at elevated temperatures. At the conclusion of the incubation period the plates are examined for the development of colonies. The log reduction was determined based on a comparison to the inoculum control.

E. coli [3] = experiment: in vitro anti-microbial activity of vitamin B solutions in 0.5% Tris buffer with benzalkonium chloride (Example 4); details: for effect on the preservative (BAK): 0.5% vitamin B, 25 PPM BAK, E. coli 1 hour; for Log Reduction at 1 hr: E. coli, 0.5% Tris
Protocol: as §2, with “Polyhexamethylene biquanide (PHMB) at 0.0001% was added to each formulation.” left out, “hour.” for “hours.”, “control. The following table provides the results of the in vitro studies.” for “control.”

C. albicans [4] = experiment: in vitro microbicidal activity of vitamin B solutions in 0.2% phosphate buffer preserved with PHMB (Example 1); details: PHMB 0.0001%; for activity against C. albicans as compared to the buffer control: 0.5% additive, 4 hours; for 4 Hour Log Reduction: C. albicans, room temperature, additive 0.5% in 0.2% phosphate buffer, isotonic, pH 7.2, vs inoculum control
Protocol: as §1, with “Pyridoxine HCl (Spectrum) and Thiamine HCl (Fisher)” for “dexpanthenol”, “0.2% phosphate” for “0.25% Bis-Tris Propane”, “biguanide” for “biquanide”, “0.0001%.” for “0.00005%.”, “control.” for “control. The following table provides the results of the in vitro studies.”

[5] = room temperature, 0.6% sodium chloride, pH 7.2, 25 PPM BAK, vitamin B 0.5%

Compound | Log Reduction Calibicans 4 hour (C. albicans [1]) | preservative efficacy over a solution with a preservative alone (C. albicans [1]; dexpanthenol 0.1%, C. albicans 4 hours) | effect on the preservative (PHMB) (E. coli [2]) | Log Reduction at 1 hr (E. coli [2]) | effect on the preservative (BAK) (E. coli [3]) | Log Reduction at 1 hr (E. coli [3]; [5]) | activity against C. albicans as compared to the buffer control (C. albicans [4]) | 4 Hour Log Reduction (C. albicans [4]) | Log Reduction at 1 hr (E. coli [3]; no vitamin B, row printed with 1 ppm PHMB)
CC(C)(CO)[C@@H](O)C(=O)NCCCO [Dexpanthenol, dexpanthenol] | 4.9 | improved preservative efficacy | enhancement of the preservative | 4.82 | enhancement of the preservative | >5.12 |  |  | 
Cc1ncc(CO)c(CO)c1O.Cl [Pyridoxine HCl] |  |  | enhancement of the preservative | 4.34 | enhancement of the preservative | >5.12 | improvement in the activity | 2.0 | 
Cc1ncc(C[n+]2csc(CCO)c2C)c(N)n1 [Thiamine HCl] |  |  | enhancement of the preservative | 5.12 |  | 3.30 | improvement in the activity | 1.0 | 
polyhexamethylene biguanide [PHMB] | 3.8 |  |  | 0.42 |  |  |  |  | 0.42
